According to paper PMC10653080, “Intermolecular Interactions, Solute Descriptors, and Partition Properties of Neutral Per- and Polyfluoroalkyl Substances (PFAS)” (Environmental Science & Technology, 2023):

Tests used:
[1] = PP-LFER solute descriptor determination from GC retention and partition coefficient data; type: physicochemical; conditions: for Solute descriptor L (logarithmic hexadecane/air partition coefficient, KHxd/air): 25 °C, updated in the iterative calculation; for Solute descriptor S (dipolarity/polarizability parameter): final adjusted value, shared within a PFAS group
Excerpt: The GC columns used were, from low to high polarity, HP-5ms Ultra Inert (poly[5% phenyl/95% methyl]siloxane equivalent; Agilent Technologies, Santa Clara, CA), DB-200 (poly[35% trifluoropropyl/65% methyl]siloxane; Agilent Technologies), DB-225ms (poly[50% cyanopropylphenyl/50% methyl]siloxane equivalent; Agilent Technologies), and SolGel-WAX (polyethylene glycol; Trajan, Ringwood, Australia). Column dimensions were all 30 m × 0.25 mm i.d. with a coating thickness of 0.25 μm.
The method for GC retention time measurements follows that of a previous study.[18] Briefly, a 7890A/5975C GC/MS instrument (Agilent Technologies) equipped with an MPS2 autosampler and CIS4 injector (Gerstel, Mülheim an der Ruhr, Germany) was used for all measurements. For each column, isothermal retention times were measured at four temperatures in the range of 30–120 °C to cover all target compounds. The temperature at the injector and transfer line was fixed at 120 °C. The carrier gas was He at a flow rate of 1.2 mL/min. Compounds were introduced into the GC by injecting either headspace (100–250 μL) above the pure compound or solution in acetone (1 μL). Split injections were performed with a split ratio of 20–250. Column dead time (t0) was determined by injecting air and measuring Ar (m/z 40). From the measured retention time (t), the retention factor (k) was calculated as k = (t–t0)/t0. Measurements with t < t0 + 0.1 min were considered too short and discarded. For each column and temperature, k values were obtained for 29–52 PFAS and 29–48 reference compounds.
The standard procedure for solute descriptor determination was as follows. First, the system parameters in eq 1 were calibrated for each column (or partition system) and temperature by MLR using log k (or log K) data and solute descriptors for reference compounds. Dimethylformamide, 1-pentylamine, dimethylsulfoxide, and dodecamethylcyclohexasiloxane (D6) were removed from the log k data sets, because they frequently appeared as outliers (>3 SD) of the PP-LFER model fit. Reference data sets for hexadecane/water partition coefficients (KHxd/w),[21]Kow,[22] and octanol/air partition coefficients (Koa)[23] were taken from the cited references and amended with data for organosilicon compounds.[24],[25] Similar to PFAS, organosilicon compounds have weak van der Waals interaction properties[9] and it may be beneficial to include them in reference data sets. The solute descriptors for PFAS were then back-calculated by using the calibrated PP-LFER equations. Of the five descriptors, V can be calculated from the molecular structure[26] (note: the fragment value for F from Goss et al.[11] was used), and L was available for the PFAS studied.[18] Thus, the left side of eq 2 was known, and MLR was performed to obtain S, A, and B on the right side. [drawing 2] 2 To determine the three descriptors, a minimum of three k and K data are required for a given PFAS compound. The data used here were: k measured for 60 PFAS in this study, KHxd/w for 21 PFAS,[5]Kow for 12 PFAS (see the Results and Discussion section), and Koa for 3 PFAS.[11]
Key to the accurate determination of the polar interaction descriptors is the availability of K data for partition systems with water as a partition phase because water is a strong H-bond donor and acceptor phase and thus the corresponding K values are sensitive to the H-bonding properties of the solute.[27] In particular, at least one solvent/water or air/water partition coefficient is required to determine B because there is no commonly used GC phase that is a significant H-bond donor. In the data set, KHxd/w is sensitive to both A and B and Kow is sensitive to B. However, KHxd/w and Kow data are not available for all PFAS. To increase the number of PFAS for which descriptors can be determined, the following assumptions were made. […]

[2] = set-up: method as in PMID 18800530; conditions: 25 °C; batch partition method (BP); ref [4]; cited from earlier work
[3] = Octanol/water partition coefficient (Kow), batch partition method; type: physicochemical; conditions: 25 °C; batch partition method (BP)
Description: (§1) Kow was measured for nine PFAS (Table 2) to supplement the data set for descriptor determination. The nine PFAS were selected based on measurement feasibility and structural diversity. The shared-headspace or batch partition method was used as described previously.[5] Details of the methods are given in SI-1.

[4] = Octanol/water partition coefficient (Kow), shared-headspace method; type: physicochemical; conditions: 25 °C; shared-headspace method (SH)
Description: as §1

| SMILES | Solute descriptor L (logarithmic hexadecane/air partition coefficient, KHxd/air) [1] | Solute descriptor S (dipolarity/polarizability parameter) [1] | Log Kow, Mean ± SD [2] | Measured Log Kow, Mean ± SD [3] | Measured Log Kow, Mean ± SD [4] |
| --- | --- | --- | --- | --- | --- |
| OCCC(F)(F)C(F)(F)C(F)(F)C(F)(F)C(F)(F)C(F)(F)F [6:2 FTOH, 1H,1H,2H,2H-Perfluorooctan-1-ol] | 2.997 | 0.35 | 4.54 ± 0.01 |  |  |
| OCCC(F)(F)C(F)(F)C(F)(F)C(F)(F)C(F)(F)C(F)(F)C(F)(F)C(F)(F)F [8:2 FTOH, 1H,1H,2H,2H-Perfluorodecan-1-ol] | 3.554 | 0.35 | 5.58 ± 0.06 |  |  |
| NS(=O)(=O)C(F)(F)C(F)(F)C(F)(F)C(F)(F)F [PFBSA, Perfluorobutanesulfonamide] | 3.607 | 0.96 |  | 2.85 ± 0.02 |  |
| OCCCCC(F)(F)C(F)(F)C(F)(F)C(F)(F)F [4:4 FTOH, 5,5,6,6,7,7,8,8,8-Nonafluorooctan-1-ol] | 3.499 | 0.52 |  |  | 3.54 ± 0.00 |
| CNS(=O)(=O)C(F)(F)C(F)(F)C(F)(F)C(F)(F)F [MeFBSA, N-Methylperfluorobutanesulfonamide] | 3.566 | 0.88 |  | 3.51 ± 0.00 |  |
| CN(CCO)S(=O)(=O)C(F)(F)C(F)(F)C(F)(F)C(F)(F)F [MeFBSE, N-Methylperfluorobutanesulfonamidoethanol] | 4.769 | 1.00 |  | 3.11 ± 0.04 |  |
| OCCC(F)(F)C(F)(F)C(F)(F)C(F)(F)F [4:2 FTOH, 1H,1H,2H,2H-Perfluorohexan-1-ol] | 2.421 | 0.35 | 3.30 ± 0.04 |  |  |
